The test system of series [1] is RAW264.7. Briefly: Cytotoxicity against mouse RAW264.7 cells assessed as cell viability at 100 uM by MTS assay. Format: cell-based. The settings on record: raw264.7, 100 µM. (In general: Formazan colour is commonly taken as a measure of viable cells.)
For series [2], the system named is Right cardiac atrium. Briefly: Increase in absolute refractory period in Guinea pig right atria at 100 uM incubated for 30 mins by electrogram. The conditions noted are these: Cavia porcellus. Format: functional.
The species named for a further series is Cavia porcellus. In words: Effect on papillary muscle refractory period in Guinea pig at 100 uM by electrogram. Format: functional, tissue-based.
In series [3] the test system is Right cardiac atrium. In words: Reduction in resting atrial rate in Guinea pig right atria at 100 uM by electrogram (reference value: 175 to 200 bpm). Format: functional, Cavia porcellus.
The next series deals with Aorta. Briefly: Antioxidant activity in NADPH stimulated Sprague-Dawley rat aorta assessed as reduction in photon emission at 10 uM incubated for 45 mins by lucigenin-enhanced chemiluminescence assay. The class given is functional, tissue-based.
The test system of another series is Erythrocyte. Briefly: Antioxidant activity in C57Bl/6 mouse erythrocyte assessed as increase in AAPH-induced hemolysis time incubated for 30 mins by spectrophotometry. The class given is functional, cell-based.
Series [4] relates to RAW264.7. In words: Antioxidant activity in phorbol 12,13-dibutyrate stimulated mouse RAW264.7 cells assessed as inhibition of ROS generation by measuring the reduction in photon emission at 100 uM incubated for 60 mins by L-012-enhanced chemiluminescence assay relative to control. The class given is functional.
The nature of series [5]: Toxicity in rat H9c2(2-1) cells assessed as cell death at 10 uM incubated for 12 hrs under hypoxic simulated ischemia by propidium iodide exclusion assay. Format: cell-based.
Series [6] is described as follows: (§1) Cardio-protective anti-ischemic activity in rat H9c2(2-1) cells assessed as reduction in cell death at 5 uM incubated for 12 hrs under hypoxic simulated ischemia by propidium iodide exclusion assay. Format: functional. Details: scale not given: the % may be the effect or the level left.
Another series is filed under the species Rattus norvegicus. The description is as §1. The class given is functional.

Each structure is given as a SMILES string. Active and inactive are the calls of the source. The rule behind the calls is not given here.

Turning to `CC(COc1c(Cl)cccc1Cl)NCc1ccc2c(c1)C(C)(C)NC2(C)C` (stereo not drawn), the Activity result with RAW264.7 [1] is listed as “Non-toxic”.

`CC(N)COc1c(Cl)cccc1Cl` (stereo not drawn): in the series on Right cardiac atrium [2], the outcome was Active. Moreover, the outcome in the series listed under Cavia porcellus was inactive. The Activity with Right cardiac atrium [3] worked out at 15 bpm.

Regarding `CC1(C)c2ccccc2C(C)(C)N1O`, the Activity result with RAW264.7 [1] was “Non-toxic”. Moreover, the result in the series on Aorta and in the series with Erythrocyte was inactive.

As to `Cc1cccc(C)c1OCC(C)NCc1ccc2c(c1)C(C)(C)N([O])C2(C)C` (stereo not drawn), the result with Right cardiac atrium [2] and in the series with Right cardiac atrium [3] (Cavia porcellus) was Active. For the same compound, the outcome in the series on RAW264.7 [4] and in the series filed under Cavia porcellus was inactive.

In the case of `CC1(C)NC(C)(C)c2ccccc21`, the Activity result in the series with RAW264.7 [1] is “Non-toxic”. Besides, the outcome with Aorta and with Erythrocyte was inactive.

On to `CC1(C)c2ccccc2C(C)(C)N1[O]`, for which, in the series with RAW264.7 [1], the Activity entry is recorded as “Non-toxic”. For the same compound, the outcome with Aorta and in the series with Erythrocyte was inactive.

On to `Cc1cccc(C)c1OCC(C)NCc1ccc2c(c1)C(C)(C)NC2(C)C` (stereo not drawn), for which the results for the Activity entry in [5] and in series [6] were “Toxic” and 55%, respectively. The outcome in the series with Right cardiac atrium [2] and with Right cardiac atrium [3] (Cavia porcellus) was Active. Also, the result with RAW264.7 [4] and in the series listed under Cavia porcellus was inactive.

For the compound `CC(COc1c(Cl)cccc1Cl)NCc1ccc2c(c1)C(C)(C)N([O])C2(C)C` (stereo not drawn), the Activity result is recorded as “Toxic” in [5] and “Non-toxic” in the series with RAW264.7 [1]. For the same compound, the result in the series filed under Rattus norvegicus and with Right cardiac atrium [3] (Cavia porcellus) was Active. Besides, the outcome with Right cardiac atrium [2] and in the series filed under Cavia porcellus was inactive.

For the compound `CC(COc1c(Cl)cccc1Cl)NCc1ccc2c(c1)C(C)(C)N(O)C2(C)C` (stereo not drawn), the Activity entry with RAW264.7 [1] was “Non-toxic”.

In the case of `Cc1cccc(C)c1OCC(C)NCc1ccc2c(c1)C(C)(C)N(O)C2(C)C` (stereo not drawn), in [5], the Activity entry is “Toxic”. Moreover, the outcome in the series filed under Rattus norvegicus, in the series with Right cardiac atrium [2] and with Right cardiac atrium [3] (Cavia porcellus) was Active. The result in the series on RAW264.7 [4] and in the series listed under Cavia porcellus was inactive.

As for `Cc1cccc(C)c1OCC(C)N` (stereo not drawn) [MEXILETINE], the result in the series with Aorta, in the series listed under Rattus norvegicus, in the series with RAW264.7 [4] and in the series with Erythrocyte was inactive. The outcome in the series with Right cardiac atrium [2] and in the series listed under Cavia porcellus was Active. The Activity in the series on Right cardiac atrium [3] came out at 15 bpm.

Source of the values: ChEMBL document CHEMBL3734745, “Synthesis of six mexiletine derivatives with isoindolines attached as potential antioxidants and their evaluation as cardioprotective agents” (Medchemcomm, 2015).
